Values of other authors in US20190175504A1, “Carbohydrate-Derivatized Liposomes for Targeting Cellular Carbohydrate Recognition Domains of Ctl/Ctld Lectins, and Intracellular Delivery of Therapeutically Active Compounds” (RODOS BioTarget GmbH, priority 2004, published 2019).

How the values were obtained:
[1] = system: mouse model of liver damage

| Structure (SMILES) | antifibrotic effect (bile duct-ligated mouse) | pathologic values of liver parameters (e.g., ALT) (HCV-positive patients) | apoptosis in liver damage [1] |
| --- | --- | --- | --- |
| C[C@H](NC(=O)C(=O)Nc1ccccc1C(C)(C)C)C(=O)N[C@@H](CC(=O)O)C(=O)COc1c(F)c(F)cc(F)c1F [IDN-6556] | proven beneficial as an antifibrotic agent | significantly reduces | – |
| Cc1ccc(C(=O)Nc2ccc(S(=O)(=O)O)c3cc(S(=O)(=O)O)cc(S(=O)(=O)O)c23)cc1NC(=O)c1cccc(NC(=O)Nc2cccc(C(=O)Nc3cc(C(=O)Nc4ccc(S(=O)(=O)O)c5cc(S(=O)(=O)O)cc(S(=O)(=O)O)c45)ccc3C)c2)c1 [suramin] | – | – | inhibit apoptosis |
